Tested on: coronary artery smooth muscle cells+(IL-1p, TNFα and IFNγ)
Assay: BioMAP CASM3C system
Type: cell-based, human
Conditions: Th1 vascular smooth muscle inflammation; concentrations of FIGS. 12-14
Source text: The BioMAP systems consist of human primary cell-based systems designed to model different aspects of the human body in an in vitro format. The 12 systems tested characterized the test compounds across a broad set of systems modeling various human disease states. BioMAP systems were constructed with one or more primary cell types from healthy human donors, with stimuli (such as cytokines or growth factors) added to capture relevant signaling networks that naturally occur in human tissue or pathological conditions. […] Soluble factors from supernatants were quantified using either HTRF® detection, bead-based multiplex immunoassay or capture ELISA. Overt adverse effects of test agents on cell proliferation and viability (cytotoxicity) were detected by sulforhodamine B (SRB) staining, for adherent cells, and alamarBlue® reduction for cells in suspension. […] Each tested compound generated a signature BioMAP profile that was created from the changes in protein biomarker readouts within individual system environments. […] Each readout was measured quantitatively by immune-based methods that detected protein (e.g., ELISA) or functional assays that measured proliferation and viability. BioMAP readouts were diverse and included cell surface receptors, cytokines, chemokines, matrix molecules and enzymes. […]

Compound	Inhibition of biomarker readouts in the CASM3C system
CC[C@@H]1[C@H](F)C(=O)N[C@@H]1COc1nccc2cc(C(N)=O)c(OC)cc12 [PF-06650833, 1-(((2S,3S,4S)-3-Ethyl-4-fluoro-5-oxopyrrolidin-2-yl)methoxy)-7-methoxyisoquinoline-6-carboxamide]	IL-6
C[C@@H]1CCN(C(=O)CC#N)C[C@@H]1N(C)c1ncnc2[nH]ccc12 [tofacitinib, 3-((3R,4R)-4-Methyl-3-(methyl(7H-pyrrolo[2,3-d]pyrimidin-4-yl)amino)piperidin-1-yl)-3-oxopropanenitrile]	MIG
